A word on the inhibition: it is the change of the read-out against control, counted positive when it falls.

20 compounds from patent US8455475B2 (Gruenenthal GmbH, priority 2009, dated 2013) can be followed below.

The assay has as its target T1, rat B1R (bradykinin receptor 1) (Rattus norvegicus, UniProt P97583).
T1 construct: expressed in transfected cells; host or cells: CHO K1 cells
T1 sequence (P97583 1-337): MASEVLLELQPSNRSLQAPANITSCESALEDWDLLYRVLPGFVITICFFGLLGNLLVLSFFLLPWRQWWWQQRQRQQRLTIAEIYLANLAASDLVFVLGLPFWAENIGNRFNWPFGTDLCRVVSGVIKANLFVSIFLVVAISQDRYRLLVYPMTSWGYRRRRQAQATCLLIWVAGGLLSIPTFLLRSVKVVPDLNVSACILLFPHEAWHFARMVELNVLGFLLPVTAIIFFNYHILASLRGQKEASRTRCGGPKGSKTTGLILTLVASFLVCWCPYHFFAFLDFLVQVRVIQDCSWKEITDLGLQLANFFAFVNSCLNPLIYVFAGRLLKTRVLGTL
The experiment in a line: FLIPR Ca2+ assay (Fluo-4) on CHO K1 cells stably transfected with the B1R gene of the rat (rB1R cells): % inhibition at 10 μM / IC50, agonist Des-Arg9-bradykinin. Type of assay: cell-based. The following applies: CHO-K1, rat B1R. In a few lines: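 Cells were Fluo-4-loaded, then test compound (10 μM, or a concentration series for IC50) was preincubated 10–20 min before agonist challenge at EC80: Lys-Des-Arg9-bradykinin for hB1R, Des-Arg9-bradykinin for rB1R. Peak Ca2+ fluorescence (ex 488/em 540 nm) gave % inhibition versus maximal achievable inhibition.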
Consider `CCC(CC)CN1CCC2(CC1)CCN(C(=O)c1ccc3c(c1)C(NC(=O)c1cccc(Cl)c1Cl)CC3)C2` (centres unmarked) [IND_CC-748, 2,3-Dichloro-N-[6-[8-(2-ethyl-butyl)-2,8-diazaspiro[4.5]decane-2-carbonyl]-2,3-dihydro-1H-inden-1-yl]-benzamide], for which the inhibition at 10 µM stood at 70%.
In the case of `CC1(C)CC(NS(=O)(=O)c2cccc(C(F)(F)F)c2)c2cc(C(=O)N3CCC4(CC3)CCN(c3ccncc3)CC4)ccc21` (centres unmarked) [IND_CC-340, N-[3,3-Dimethyl-6-(3-pyridin-4-yl-3,9-diazaspiro[5.5]undecane-9-carbonyl)-1,2-dihydro-inden-1-yl]-3-(trifluoromethyl)-benzenesulfonic acid amide], the inhibition at 10 µM is 101%.
`O=C(NC1CCc2ccc(C(=O)N3CCC4(CCN(Cc5c(F)cccc5F)CC4)CC3)cc21)c1ccccc1Cl` (centres unmarked) [IND_CC-513, 2-Chloro-N-[6-[9-[(2,6-difluoro-phenyl)-methyl]-3,9-diazaspiro[5.5]undecane-3-carbonyl]-2,3-dihydro-1H-inden-1-yl]-benzamide]: the inhibition at 10 µM was determined as 98%.
For `O=C(NC1CCc2ccc(C(=O)N3CCC4(CCN(Cc5ccc6ncccc6c5)CC4)C3)cc21)c1cc(Cl)ccc1F` (centres unmarked) [IND_CC-671, 5-Chloro-2-fluoro-N-[6-[8-(quinolin-6-yl-methyl)-2,8-diazaspiro[4.5]decane-2-carbonyl]-2,3-dihydro-1H-inden-1-yl]-benzamide], the inhibition at 10 µM is 80%.
`Cc1ccc(C(=O)NC2c3cc(C(=O)N4CCC5(CC4)CCN(c4ccncc4)CC5)ccc3CC2(C)C)c(F)c1` (centres unmarked) [IND_CC-317, N-[2,2-Dimethyl-6-(9-pyridin-4-yl-3,9-diazaspiro[5.5]undecane-3-carbonyl)-1,3-dihydro-inden-1-yl]-2-fluoro-4-methyl-benzamide]: the inhibition at 10 µM amounted to 60%.
For the compound `N#Cc1ccccc1CN1CCC2(CC1)CCN(C(=O)c1ccc3c(c1)C(NC(=O)c1ccccc1Cl)CC3)C2` (centres unmarked) [IND_CC-563, 2-Chloro-N-[6-[8-[(2-cyano-phenyl)-methyl]-2,8-diazaspiro[4.5]decane-2-carbonyl]-2,3-dihydro-1H-inden-1-yl]-benzamide], the inhibition at 10 µM came to 92%.
On to `N#Cc1cccc(CN2CCC3(CC2)CCN(C(=O)c2ccc4c(c2)C(NC(=O)c2cc(C(F)(F)F)ccc2Cl)CC4)C3)c1` (centres unmarked) [IND_CC-659, 2-Chloro-N-[6-[8-[(3-cyano-phenyl)-methyl]-2,8-diazaspiro[4.5]decane-2-carbonyl]-2,3-dihydro-1H-inden-1-yl]-5-(trifluoromethyl)-benzamide], for which the inhibition at 10 µM was found to be 81%.
On to `O=C(NC1CCc2ccc(C(=O)N3CCC4(CCN(c5ccncc5)CC4)C3)cc21)c1ccc(F)cc1C(F)(F)F` (centres unmarked) [IND_CC-382, 4-Fluoro-N-[6-(8-pyridin-4-yl-2,8-diazaspiro[4.5]decane-2-carbonyl)-2,3-dihydro-1H-inden-1-yl]-2-(trifluoromethyl)-benzamide], for which the inhibition at 10 µM was found to be 103%.
Regarding `O=C(c1ccc2c(c1)C(NS(=O)(=O)c1c(Cl)cc(Cl)cc1Cl)CC2)N1CCC2(CCN(c3ccncc3)CC2)C1` (centres unmarked) [IND_CC-407, 2,4,6-Trichloro-N-[6-(8-pyridin-4-yl-2,8-diazaspiro[4.5]decane-2-carbonyl)-2,3-dihydro-1H-inden-1-yl]-benzenesulfonic acid amide], the inhibition at 10 µM came out at 101%.
Consider `O=C(c1ccc2c(c1)C(NS(=O)(=O)c1c(Cl)cc(C(F)(F)F)cc1Cl)CC2)N1CCC2(CCN(c3ccncc3)CC2)C1` (centres unmarked) [IND_CC-404, 2,6-Dichloro-N-[6-(8-pyridin-4-yl-2,8-diazaspiro[4.5]decane-2-carbonyl)-2,3-dihydro-1H-inden-1-yl]-4-(trifluoromethyl)-benzenesulfonic acid amide], for which the inhibition at 10 µM came to 92%.
Take `O=C(c1ccc2c(c1)C(N(C(=O)c1ccccc1Cl)C1CC1)CC2)N1CCC2(CCN(C(=O)C3CC3)CC2)C1` (centres unmarked) [IND_CC-603, 2-Chloro-N-[6-[8-(cyclopropanecarbonyl)-2,8-diazaspiro[4.5]decane-2-carbonyl]-2,3-dihydro-1H-inden-1-yl]-N-cyclopropyl-benzamide]: the inhibition at 10 µM was determined as 75%.
As for `O=C(c1ccc2c(c1)C(N(C(=O)c1ccccc1Cl)C1CC1)CC2)N1CCC2(CCN(Cc3ccc(F)cc3F)CC2)C1` (centres unmarked) [IND_CC-523, 2-Chloro-N-cyclopropyl-N-[6-[8-[(2,4-difluoro-phenyl)-methyl]-2,8-diazaspiro[4.5]decane-2-carbonyl]-2,3-dihydro-1H-inden-1-yl]-benzamide], the inhibition at 10 µM turned out to be 68%.
With `O=C(NC1CCc2ccc(C(=O)N3CCC4(CCN(CCc5ccccc5)CC4)C3)cc21)c1cccc(Cl)c1Cl` (centres unmarked) [IND_CC-749, 2,3-Dichloro-N-[6-(8-phenethyl-2,8-diazaspiro[4.5]decane-2-carbonyl)-2,3-dihydro-1H-inden-1-yl]-benzamide], the inhibition at 10 µM was found to be 70%.
Turning to `CN(C(=O)C1CCCCC1)C1CCc2ccc(C(=O)N3CCC4(CC3)CCN(c3ccncc3)CC4)cc21` (centres unmarked) [IND_CC-365, N-Methyl-N-[6-(9-pyridin-4-yl-3,9-diazaspiro[5.5]undecane-3-carbonyl)-2,3-dihydro-1H-inden-1-yl]-cyclohexanecarboxylic acid amide], the inhibition at 10 µM worked out at 105%.
As for `CN(C1CCc2ccc(C(=O)N3CCC4(CC3)CCN(c3ccncc3)CC4)cc21)S(=O)(=O)c1ccc(C(F)(F)F)cc1Cl` (centres unmarked) [IND_CC-320, 2-Chloro-N-methyl-N-[6-(9-pyridin-4-yl-3,9-diazaspiro[5.5]undecane-3-carbonyl)-2,3-dihydro-1H-inden-1-yl]-4-(trifluoromethyl)-benzenesulfonic acid amide], the inhibition at 10 µM amounted to 83%.
As to `CCC(CC)CN1CCC2(CC1)CCN(C(=O)c1ccc3c(c1)C(NC(=O)c1c(F)cccc1Cl)CC3)C2` (centres unmarked) [IND_CC-778, 2-Chloro-N-[6-[8-(2-ethyl-butyl)-2,8-diazaspiro[4.5]decane-2-carbonyl]-2,3-dihydro-1H-inden-1-yl]-6-fluoro-benzamide], the inhibition at 10 µM is 105%.
Regarding `O=C(NC1CCc2ccc(C(=O)N3CCC4(CCN(Cc5c(F)cccc5Cl)CC4)C3)cc21)c1ccccc1Cl` (centres unmarked) [IND_CC-557, 2-Chloro-N-[6-[8-[(2-chloro-6-fluoro-phenyl)-methyl]-2,8-diazaspiro[4.5]decane-2-carbonyl]-2,3-dihydro-1H-inden-1-yl]-benzamide], the inhibition at 10 µM was 103%.
`CN(C(=O)CC(C)(C)C)C1CCc2ccc(C(=O)N3CCC4(CC3)CCN(c3ccncc3)CC4)cc21` (centres unmarked) [IND_CC-372, N,3,3-Trimethyl-N-[6-(9-pyridin-4-yl-3,9-diazaspiro[5.5]undecane-3-carbonyl)-2,3-dihydro-1H-inden-1-yl]-butyramide]: the inhibition at 10 µM was 105%.
Consider `Cc1cccc(Cl)c1C(=O)NC1CCc2ccc(C(=O)N3CCC4(CCN(CCCc5cccc(F)c5)CC4)C3)cc21` (centres unmarked) [IND_CC-770, 2-Chloro-N-[6-[8-[3-(3-fluorophenyl)-propyl]-2,8-diazaspiro[4.5]decane-2-carbonyl]-2,3-dihydro-1H-inden-1-yl]-6-methyl-benzamide], for which the inhibition at 10 µM was 109%.
Next, `O=C(NC1CCc2ccc(C(=O)N3CCC4(CCN(Cc5ccc(F)cc5F)CC4)C3)cc21)c1cc(Cl)ccc1F` (centres unmarked) [IND_CC-622, 5-Chloro-N-[6-[8-[(2,4-difluoro-phenyl)-methyl]-2,8-diazaspiro[4.5]decane-2-carbonyl]-2,3-dihydro-1H-inden-1-yl]-2-fluoro-benzamide]: 69%.
